Measurements taken from PubChem BioAssay AID2060910 (Molecular Pharmacology Branch, DTP, NCI, 2025).
Blank lines part the entries; values can stand above or below the compound they belong to.

System: 242566-281-R-J2-PDC complex spheroid viability
Experiment: Anticancer human tumor 242566-281-R-J2-PDC patient-derived pancreatic carcinoma cell line growth inhibition [RAS]
Conditions: for IC50: curve of first compound; for viability, T/C: stronger effect = lower value
Method in brief: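 Tumour cells grown as complex spheroids with HUVEC endothelial cells and mesenchymal stem cells, treated with RAS pathway inhibitor combinations. Each agent spans half-log steps from near clinical Cmax, or 10 microM where Cmax is unknown.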

[1] = second compound 0.000949 µM, first compound 0.0316 µM
[2] = second compound 0.000949 µM, first compound 0.1 µM
[3] = second compound 0.000949 µM, first compound 0.316 µM
[4] = second compound 0.000949 µM, first compound 1 µM
[5] = second compound 0.003 µM, first compound 0.0316 µM
[6] = second compound 0.003 µM, first compound 0.1 µM
[7] = second compound 0.003 µM, first compound 0.316 µM
[8] = second compound 0.003 µM, first compound 1 µM
[9] = second compound 0.00949 µM, first compound 0.0316 µM
[10] = second compound 0.00949 µM, first compound 0.1 µM
[11] = second compound 0.00949 µM, first compound 0.316 µM
[12] = second compound 0.00949 µM, first compound 1 µM
[13] = second compound 0.03 µM, first compound 0.0316 µM
[14] = second compound 0.03 µM, first compound 0.1 µM
[15] = second compound 0.03 µM, first compound 0.316 µM
[16] = second compound 0.03 µM, first compound 1 µM
[17] = second compound 0.0949 µM, first compound 0.0316 µM
[18] = second compound 0.0949 µM, first compound 0.1 µM
[19] = second compound 0.0949 µM, first compound 0.316 µM
[20] = second compound 0.0949 µM, first compound 1 µM
[21] = second compound 0.3 µM, first compound 0.0316 µM
[22] = second compound 0.3 µM, first compound 0.1 µM
[23] = second compound 0.3 µM, first compound 0.316 µM
[24] = second compound 0.3 µM, first compound 1 µM
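Also: spheroids exposed to compound for 7 days before readout.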
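For viability, T/C in this document: 100% = DMSO vehicle control wells.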

IC50 (second compound 0.000949 µM): < 31.6 nM | IC50 (second compound 0.003 µM): < 31.6 nM | IC50 (second compound 0.00949 µM): < 31.6 nM | IC50 (second compound 0.03 µM): < 31.6 nM | IC50 (second compound 0.0949 µM): < 31.6 nM | IC50 (second compound 0.3 µM): < 31.6 nM
SMILES: CC(=O)OC12COC1CC(O)C1(C)C(=O)C(O)C3=C(C)C(OC(=O)C(O)C(NC(=O)OC(C)(C)C)c4ccccc4)CC(O)(C(OC(=O)c4ccccc4)C21)C3(C)C (centres undefined) + CCn1c(-c2cc(N3CCN(C)CC3)cnc2C(C)OC)c2c3cc(ccc31)-c1csc(n1)CC(NC(=O)C1CC1C)C(=O)N1CCCC(N1)C(=O)OCC(C)(C)C2
viability, T/C [1]: 38.4% | viability, T/C [2]: 32.3% | viability, T/C [3]: 21.8% | viability, T/C [4]: 32.2% | viability, T/C (second compound 0.000949 µM, first compound 3.16 µM): 31.9% | viability, T/C (second compound 0.000949 µM, first compound 10 µM): 27.6% | viability, T/C [5]: 34.2% | viability, T/C [6]: 23.3% | viability, T/C [7]: 22.6% | viability, T/C [8]: 26.7% | viability, T/C (second compound 0.003 µM, first compound 3.16 µM): 32.5% | viability, T/C (second compound 0.003 µM, first compound 10 µM): 25.2% | viability, T/C [9]: 26% | viability, T/C [10]: 19% | viability, T/C [11]: 21.9% | viability, T/C [12]: 20.2% | viability, T/C (second compound 0.00949 µM, first compound 3.16 µM): 20.9% | viability, T/C (second compound 0.00949 µM, first compound 10 µM): 16.8% | viability, T/C [13]: 19.1% | viability, T/C [14]: 16.3% | viability, T/C [15]: 17.9% | viability, T/C [16]: 19% | viability, T/C (second compound 0.03 µM, first compound 3.16 µM): 11.6% | viability, T/C (second compound 0.03 µM, first compound 10 µM): 10% | viability, T/C [17]: 11.7% | viability, T/C [18]: 11.9% | viability, T/C [19]: 13.4% | viability, T/C [20]: 10.5% | viability, T/C (second compound 0.0949 µM, first compound 3.16 µM): 6.83% | viability, T/C (second compound 0.0949 µM, first compound 10 µM): 6.76% | viability, T/C [21]: 9.32% | viability, T/C [22]: 9.15% | viability, T/C [23]: 7.89% | viability, T/C [24]: 8.09% | viability, T/C (second compound 0.3 µM, first compound 3.16 µM): 7.91% | viability, T/C (second compound 0.3 µM, first compound 10 µM): 6.31%

IC50 (second compound 0.000949 µM): 40.1 nM | IC50 (second compound 0.003 µM): 22.8 nM | IC50 (second compound 0.00949 µM): < 3.16 nM | IC50 (second compound 0.03 µM): < 3.16 nM | IC50 (second compound 0.0949 µM): < 3.16 nM | IC50 (second compound 0.3 µM): < 3.16 nM
SMILES: Nc1ccn(C2OC(CO)C(O)C2(F)F)c(=O)n1 (centres undefined) + CCn1c(-c2cc(N3CCN(C)CC3)cnc2C(C)OC)c2c3cc(ccc31)-c1csc(n1)CC(NC(=O)C1CC1C)C(=O)N1CCCC(N1)C(=O)OCC(C)(C)C2
viability, T/C (second compound 0.000949 µM, first compound 0.00316 µM): 94.2% | viability, T/C (second compound 0.000949 µM, first compound 0.01 µM): 87.7% | viability, T/C [1]: 46.2% | viability, T/C [2]: 36.5% | viability, T/C [3]: 20.9% | viability, T/C [4]: 10.3% | viability, T/C (second compound 0.003 µM, first compound 0.00316 µM): 78.2% | viability, T/C (second compound 0.003 µM, first compound 0.01 µM): 57.9% | viability, T/C [5]: 43.5% | viability, T/C [6]: 35.3% | viability, T/C [7]: 24.3% | viability, T/C [8]: 10.9% | viability, T/C (second compound 0.00949 µM, first compound 0.00316 µM): 50.5% | viability, T/C (second compound 0.00949 µM, first compound 0.01 µM): 36.2% | viability, T/C [9]: 38.3% | viability, T/C [10]: 28.5% | viability, T/C [11]: 20.7% | viability, T/C [12]: 16.6% | viability, T/C (second compound 0.03 µM, first compound 0.00316 µM): 30.6% | viability, T/C (second compound 0.03 µM, first compound 0.01 µM): 27.1% | viability, T/C [13]: 25.5% | viability, T/C [14]: 20.9% | viability, T/C [15]: 16.9% | viability, T/C [16]: 16.7% | viability, T/C (second compound 0.0949 µM, first compound 0.00316 µM): 22.3% | viability, T/C (second compound 0.0949 µM, first compound 0.01 µM): 21.4% | viability, T/C [17]: 21.3% | viability, T/C [18]: 19.2% | viability, T/C [19]: 11.7% | viability, T/C [20]: 13.9% | viability, T/C (second compound 0.3 µM, first compound 0.00316 µM): 19.7% | viability, T/C (second compound 0.3 µM, first compound 0.01 µM): 18.2% | viability, T/C [21]: 18.5% | viability, T/C [22]: 14.5% | viability, T/C [23]: 13.1% | viability, T/C [24]: 14.4%
